Results on one compound are retold here after patent US7491747B2, “Butyric acid derivatives” (Merck Patent GmbH, priority 2001, dated 2009).

The target in data set [1] is T1, chimeric protein PPARα-Gal4 (Homo sapiens, UniProt Q07869).
T1 construct: Gal4 (fusion partner); expressed in transfected cells; host or cells: CV-1 cells (monkey kidney cells)
T1 sequence (Q07869 239-466 limits assumed): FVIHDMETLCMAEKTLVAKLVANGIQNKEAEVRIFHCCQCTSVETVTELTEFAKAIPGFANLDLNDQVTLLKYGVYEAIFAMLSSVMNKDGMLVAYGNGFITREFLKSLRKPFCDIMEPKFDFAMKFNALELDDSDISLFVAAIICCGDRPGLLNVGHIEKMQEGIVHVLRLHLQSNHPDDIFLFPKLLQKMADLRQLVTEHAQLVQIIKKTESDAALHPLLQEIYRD
The data set is described as follows: PPAR activation, Gal4 chimera luciferase reporter in co-transfected CV-1 cells. The data set is classed as cell-based. To be noted: 50 μM, 18 hours contact. As to the method:
(§1) The measurement of the PPAR activation was performed according to a technique described by Lehmann et al. (1995, J. Biol. Chem. 270: 12953-12956).
(§2) CV-1 cells (monkey kidney cells) are co-transfected with an expression vector for the chimeric proteins PPARα-Gal4 or PPARγ-Gal4 and with a “reporter” plasmid which allows the expression of the luciferase gene placed under the control of a promoter containing Gal4 response elements.
(§3) The cells are inoculated in 96-zwell microplates and co-transfected using a commercial reagent with the reporter plasmid (pG5-tk-pGL3) and the expression vector for the chimeric protein (PPARα-Gal4 or PPARγ-Gal4). After incubating for 4 hours, whole culture medium (containing 10% foetal calf serum) is added to the wells. After 24 hours, the medium is removed and replaced with whole medium containing the test products (50 μM final). The products are left in contact with the cells for 18 hours. The cells are then lysed and the ludferase activity is measured using a luminometer. A PPAR activation factor can then be calculated by means of the activation of the expression of the reporter gene induced by the product (relative to the control cells that have not received any product).
In general terms: In a reporter assay the amount or activity of a reporter protein is the signal.

Data set [2] concerns the target T2, chimeric protein PPARγ-Gal4 (Homo sapiens, UniProt P37231).
T2 construct: Gal4 (fusion partner); expressed in transfected cells; host or cells: CV-1 cells (monkey kidney cells)
T2 sequence (P37231 238-503 limits assumed): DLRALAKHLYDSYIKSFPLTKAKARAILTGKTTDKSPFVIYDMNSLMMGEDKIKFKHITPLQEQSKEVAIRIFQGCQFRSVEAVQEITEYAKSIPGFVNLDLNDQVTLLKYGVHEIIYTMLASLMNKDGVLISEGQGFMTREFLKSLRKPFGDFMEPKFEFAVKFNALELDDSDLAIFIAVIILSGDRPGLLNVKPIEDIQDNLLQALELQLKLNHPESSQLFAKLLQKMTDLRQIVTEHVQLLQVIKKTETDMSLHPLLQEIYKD
The description is as above. The data set is classed as cell-based. To be noted: 50 μM, 18 hours contact. The method, then: as §1, §2, §3

Another data set concerns db/db mice. The data set is described as follows: Antidiabetic and hypolipidaemiant activity, oral, in db/db mice. The data set is classed as in vivo. As to conditions: oral 20 mg/kg/day for 15 days. As to the method:
The antidiabetic and hypolipidaemiant activity of the compounds was determined orally in db/db mice.
16 week-old db/db mice are treated orally for 15 days with the compound of Example 5 (20 mg/kg/day). Each group studied comprises seven animals. After treatment for 15 days, retro-orbital samples are taken after a mild anaesthesia and fasting for 4 hours.
The following parameters were measured:
Glycaemia assay (glucose oxidase) and assay of the lipid parameters on the sera at D15 (COBAS): triglycerides, total cholesterol (CHOL), the HDL cholesterol (HDL-C) and the free fatty acids (FFA) (BioMérieux and Waco Chemicals assay kit).
The measurements given represent mean values±standard error.

Data set [3] has as its system vector expressing Gal4 alone. Put plainly: Luciferase reporter control without PPAR ligand binding region in CV-1 cells. The data set is classed as cell-based. To be noted: in the presence of the product. From the text: CV-1 cells (monkey kidney cells) are co-transfected with an expression vector for the chimeric proteins PPARα-Gal4 or PPARγ-Gal4 and with a “reporter” plasmid which allows the expression of the luciferase gene placed under the control of a promoter containing Gal4 response elements. The cells are inoculated in 96-zwell microplates and co-transfected using a commercial reagent with the reporter plasmid (pG5-tk-pGL3) and the expression vector for the chimeric protein (PPARα-Gal4 or PPARγ-Gal4). After incubating for 4 hours, whole culture medium (containing 10% foetal calf serum) is added to the wells. After 24 hours, the medium is removed and replaced with whole medium containing the test products (50 μM final). The products are left in contact with the cells for 18 hours. The cells are then lysed and the ludferase activity is measured using a luminometer. A PPAR activation factor can then be calculated by means of the activation of the expression of the reporter gene induced by the product (relative to the control cells that have not received any product). […] In the absence of the binding region for the PPARα or γ ligand (vector expressing Gal4 alone), the luciferase activity measured in the presence of this product is zero.

Where [4] appears, read: serum D15, mean ± standard error.

The term melting point denotes the temperature of the solid-liquid transition. Take `O=C(O)C(CCSc1ccccc1)Oc1ccc(C(F)(F)F)cc1` (centres unmarked) [Example 5, 4-phenylsulphanyl-2-(4-trifluoromethylphenoxy)butyric acid]: the melting point fell in the range of 108 to 110 °C. For the same compound, the “PPAR activation factor (reporter gene expression relative to control cells)” value in data set [1] is “nine”. The “PPAR activation factor (reporter gene expression relative to control cells)” value in data set [2] is reported as “six”. Besides, in the data set on db/db mice (D15, * p < 0.05 vs control), the “CHOL, % variation relative to the control” value is reported as 47* %; the “FFA, % variation relative to the control” value is listed as −38* %; the “Glycaemia, % variation relative to the control” value is listed as −59* %; the “HDL-C, % variation relative to the control” value was 36* %. In addition, the “Triglycerides, % variation relative to the control” value with db/db mice (D15, * p < 0.05 vs control) is reported as −47* %. Besides, in the data set with db/db mice (D15, fasting 4 hours, mean ± standard error), the Glycaemia stood at 11.1 ± 3.3 mM. Moreover, in the data set with db/db mice (setting [4]), the “CHOL (total cholesterol)” value is 5.4 ± 0.9 mM, the “FFA (free fatty acids)” value is 0.4 ± 0.0 mM, the HDL-C is 4.3 ± 0.6 mM and the Triglycerides is recorded as 0.7 ± 0.1 mM. Besides, the “luciferase activity in the absence of the binding region for the PPARα or γ ligand” value in data set [3] is recorded as “zero”.
